The values below are quoted from earlier work in patent US9320746B2, “Method for treating intestinal fibrosis” (Sigmoid Pharma Limited, priority 2013, dated 2016).

For the data set the following is noted: extensive first-pass elimination; compared with other corticosteroid formulations.

`CCCC1O[C@@H]2C[C@H]3[C@@H]4CCC5=CC(=O)C=C[C@]5(C)[C@H]4[C@@H](O)C[C@]3(C)[C@]2(C(=O)CO)O1` (stereo partly drawn) [budesonide, 16,17-butylidendioxy-11β,21-dihydroxy-1,4-pregnadien-3,20-dione]: the systemic bioavailability was 10-15%.
